Data taken from PMC3643815 (Combinatorial chemistry & high throughput screening, 2011).
Counter-ions that a name gives are not always drawn. Like-named read-outs stand apart in the source and are kept apart here.

Key:
[1] = Solubility by laser nephelometry; conditions: dilutions up to 77 μM
[2] = biological target: T1, human Cdc7-Dbf4 kinase (Cdc7-Dbf4 heterodimer) (Homo sapiens, UniProt O00311); assay: Cdc7-Dbf4 kinase assay with the SPA method; assay type: biochemical; conditions: 45 mM EDTA in 1% DMSO, 25 μM [γ-33P]-ATP
[3] = biological target: T1, human Cdc7-Dbf4 kinase (Cdc7-Dbf4 heterodimer); assay: Cdc7-Dbf4 kinase assay with the LUM method; assay type: biochemical; conditions: for ADP production IC50: LUM method, 12.5 μM ATP, up to 77 μM compound, duplicate, N.E. = no effect
[4] = tested on: luminescence detection (luciferase luminescence signal); assay: Dose response in the luminescence detection step of the LUM method
[5] = tested on: ADP processing (ATP depletion, ATP regeneration, luciferase reaction); assay: Dose response in the ADP processing step of the LUM method; assay type: biochemical

T1 sequence (O00311 whole entry): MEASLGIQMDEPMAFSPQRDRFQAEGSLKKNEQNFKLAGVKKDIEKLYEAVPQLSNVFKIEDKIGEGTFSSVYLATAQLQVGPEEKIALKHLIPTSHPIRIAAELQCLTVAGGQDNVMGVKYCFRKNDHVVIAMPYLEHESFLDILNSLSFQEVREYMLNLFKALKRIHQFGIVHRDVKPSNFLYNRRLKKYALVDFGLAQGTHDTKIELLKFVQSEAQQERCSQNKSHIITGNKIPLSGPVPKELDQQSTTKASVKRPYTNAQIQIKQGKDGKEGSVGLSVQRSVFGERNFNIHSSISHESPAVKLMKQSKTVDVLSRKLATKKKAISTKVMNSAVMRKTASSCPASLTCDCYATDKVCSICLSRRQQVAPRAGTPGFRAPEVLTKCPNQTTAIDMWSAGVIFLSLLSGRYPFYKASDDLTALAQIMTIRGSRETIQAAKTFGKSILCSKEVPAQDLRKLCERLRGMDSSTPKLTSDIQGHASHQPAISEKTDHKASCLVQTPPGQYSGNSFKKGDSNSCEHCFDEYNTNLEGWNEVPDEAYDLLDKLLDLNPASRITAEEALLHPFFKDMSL
T1 sequence (Q9UBU7 whole entry partner): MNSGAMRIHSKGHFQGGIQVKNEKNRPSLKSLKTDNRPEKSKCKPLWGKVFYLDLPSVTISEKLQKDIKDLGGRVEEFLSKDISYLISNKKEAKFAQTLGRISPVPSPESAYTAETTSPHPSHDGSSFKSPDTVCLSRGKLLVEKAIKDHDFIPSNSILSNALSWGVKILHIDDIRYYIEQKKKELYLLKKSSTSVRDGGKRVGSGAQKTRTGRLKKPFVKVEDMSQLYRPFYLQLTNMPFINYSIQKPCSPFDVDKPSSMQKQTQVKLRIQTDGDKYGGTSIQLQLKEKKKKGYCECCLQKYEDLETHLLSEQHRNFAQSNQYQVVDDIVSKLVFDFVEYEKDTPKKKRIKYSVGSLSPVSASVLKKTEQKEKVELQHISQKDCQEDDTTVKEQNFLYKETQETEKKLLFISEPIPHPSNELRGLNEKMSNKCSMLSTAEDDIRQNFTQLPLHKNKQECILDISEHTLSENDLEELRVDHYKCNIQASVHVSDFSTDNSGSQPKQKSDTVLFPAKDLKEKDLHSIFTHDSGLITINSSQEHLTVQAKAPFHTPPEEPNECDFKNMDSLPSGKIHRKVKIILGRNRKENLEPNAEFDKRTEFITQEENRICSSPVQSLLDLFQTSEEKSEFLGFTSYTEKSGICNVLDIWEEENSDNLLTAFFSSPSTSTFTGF

Solubility [1] | ADP production IC50 [3] | Molecule | also measured
Soluble |  | O=c1oc2c(O)c(O)cc3c(=O)oc4c(O)c(O)cc1c4c23 [Ellagic acid] | 
Soluble | N.E. ^1 | CCOC(=O)[C@H](CCc1ccccc1)N[C@@H](C)C(=O)N1CCC[C@H]1C(=O)O [Enalapril maleate, reference compound] | 
Soluble | N.E. | O=c1cc(-c2cc(O)c(O)c(O)c2)oc2cc(O)cc(O)c12 [Hieracin] | 
Soluble | N.E. | O=C(CCCCC(=O)Nc1c(I)cc(I)c(C(=O)O)c1I)Nc1c(I)cc(I)c(C(=O)O)c1I [Iodipamide, reference compound] | 
Soluble |  | O=c1c(-c2cc(O)c(O)c(O)c2)coc2cc(O)c(O)c(O)c12 [Irigenol] | 
Soluble |  | CC(=O)Oc1cc(-c2coc3cc(OC(C)=O)c(OC(C)=O)c(OC(C)=O)c3c2=O)cc(OC(C)=O)c1OC(C)=O [Iriginol hexaaceatate] | 
Soluble |  | N=C1C=CC(=C(c2ccc(N)cc2)c2ccc(N)cc2)C=C1 [Pararosaniline pamoate, reference compound] | 
Soluble |  | O=C(O[C@@H]1Cc2c(O)cc(O)cc2O[C@@H]1c1cc(O)c(=O)c2c(O)c(O)cc([C@H]3Oc4cc(O)cc(O)c4C[C@H]3O)c2c1)c1cc(O)c(O)c(O)c1 [Theaflavin monogallates] | 
Soluble |  | Tannic acid | concentration at which compound inhibits luminescence detection [4]: 10 µM; percent inhibition, Set 1 ([3]; LUM method pilot screen, 10 μM compound in 1% DMSO, Set 1 of duplicate): 46%; percent inhibition, Set 2 ([3]; LUM method pilot screen, 10 μM compound in 1% DMSO, Set 2 of duplicate): 52%; averaged percent inhibition (two data sets) ([3]; LUM method pilot screen, 10 μM compound, average of duplicate): 49%; concentration at which ATP depletion is inhibited [5]: higher than 0.2 μM

Further lines, the molecule ahead of its results:

Molecule | Solubility [1] | ADP production IC50 [3] | also measured
O=C(O)/C=C/c1ccc(O)c(O)c1 [Caffeic acid] | Soluble |  | 
O=C(O)CN(CCN(CC(=O)O)CC(=O)O)CC(=O)O [EDTA] |  |  | inhibition of Cdc7-Dbf4 kinase activity (control selection) [2]: inhibited the Cdc7-Dbf4 kinase activity
O=C(O[C@@H]1Cc2c(O)cc(O)cc2O[C@@H]1c1cc(O)c(O)c(O)c1)c1cc(O)c(O)c(O)c1 [Epigallocatechin-3-monogallate] | Soluble |  | 
O=c1c(O)c(-c2ccc(O)c(O)c2)oc2cc(O)ccc12 [Fisetin] | Soluble | N.E. | 
CN(C)c1ccc(C(=C2C=CC(=[N+](C)C)C=C2)c2ccc(N(C)C)cc2)cc1 [Gentian violet, reference compound] | Soluble |  | inhibition at 10 µM ([3]; read-out: averaged percent inhibition (two data sets)): 23%; inhibition at 10 µM ([3]; read-out: percent inhibition, Set 1): 23%; inhibition at 10 µM ([3]; read-out: percent inhibition, Set 2): 23%
O=C1C=C2CC3(O)COc4c(ccc(O)c4O)C3=C2C=C1O (stereo not drawn) [Hematein] | Soluble |  | 
O=c1c(O)c(-c2cc(O)c(O)c(O)c2)oc2cc(O)cc(O)c12 [Myricetin] | Soluble |  | 
O=c1c(O)cccc2cc(O)c(O)c(O)c12 [Purpurogallin] | Soluble | N.E. ^1 | 
O=c1c(O)c(-c2ccc(O)c(O)c2)oc2cc(O)cc(O)c12 [Quercetin] | Soluble |  | 
Pyrogallin | Soluble | N.E. | 
